Assay results: PubChem BioAssay (NCI)
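48-hour exposure; five concentrations; linearly interpolated endpoints. The concentration for 50% growth inhibition is given as GI50. At the TGI there is no net growth.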

How the values were obtained:
Test in all cases: NCI-60 cell line screen, 48 h
[1] = system: COLO 205 colon
[2] = system: SK-OV-3 ovarian
[3] = system: A549 NSCLC
[4] = system: NCI/ADR-RES ovarian
[5] = system: SK-MEL-28 melanoma
[6] = system: PC-3 prostate
[7] = system: NCI-H226 lung
[8] = system: TK-10 renal
[9] = system: M14 melanoma
[10] = system: UACC-62 melanoma
[11] = system: MDA-MB-435
[12] = system: UACC-257 melanoma
[13] = system: HL-60(TB) leukemia
[14] = system: K-562 leukemia
[15] = system: RXF 393 renal
[16] = system: CAKI-1 renal
[17] = system: HOP-92 NSCLC
[18] = system: NCI-H23 lung
[19] = system: A498 renal
[20] = system: RPMI-8226 leukemia
[21] = system: SW-620 colon
[22] = system: OVCAR-4 ovarian
[23] = system: SF-268 CNS
[24] = system: SF-539 CNS
[25] = system: SF-295 CNS
[26] = system: MOLT-4 leukemia
[27] = system: SNB-19 CNS
[28] = system: LOX IMVI melanoma
[29] = system: EKVX NSCLC
[30] = system: OVCAR-8 ovarian
[31] = system: DU-145 prostate
[32] = system: ACHN renal
[33] = system: MDA-MB-231 breast
[34] = system: U251 CNS
[35] = system: SN12C renal
[36] = system: SK-MEL-2 melanoma
[37] = system: NCI-H460 lung
[38] = system: KM12 colon
[39] = system: IGROV1 ovarian
[40] = system: SR leukemia
[41] = system: HCT-15 colon
[42] = system: OVCAR-5 ovarian
[43] = system: MALME-3M melanoma
[44] = system: UO-31 renal
[45] = system: BT-549 breast
[46] = system: HCT-116 colon
[47] = system: MCF7 breast
[48] = system: SK-MEL-5 melanoma
[49] = system: NCI-H522 lung
[50] = system: CCRF-CEM leukemia
[51] = system: HT29 colon
[52] = system: OVCAR-3 ovarian
[53] = system: HOP-62 NSCLC
[54] = system: 786-0 renal
[55] = system: HCC-2998 colon
[56] = system: SNB-75 CNS
[57] = system: HS 578T breast
[58] = system: T-47D breast

COc1ccc([C@H]2[C@H](O)C(=O)N2c2cc(OC)c(OC)c(OC)c2)cc1Cl
GI50 [1]: < 14.9 nM
TGI [1]: < 22.5 nM
GI50 [2]: < 18.7 nM
TGI [2]: > 100 µM
GI50 [3]: < 14.1 nM
TGI [3]: > 100 µM
GI50 [4]: < 13.6 nM
GI50 [5]: < 43.4 nM
TGI [5]: > 100 µM
GI50 [6]: < 16.8 nM
TGI [6]: > 100 µM
GI50 [7]: < 10 nM
TGI [7]: 50.5 µM
GI50 [8]: > 100 µM
TGI [8]: > 100 µM
GI50 [9]: < 12.8 nM
TGI [9]: > 100 µM
GI50 [10]: < 10 nM
TGI [10]: > 100 µM
GI50 [11]: < 10 nM
TGI [11]: < 10.4 nM
TGI [12]: > 100 µM
GI50 [13]: < 10 nM
GI50 [14]: < 10 nM
TGI [14]: > 100 µM
GI50 [15]: < 10 nM
TGI [15]: > 100 µM
GI50 [16]: < 10 nM
TGI [16]: > 43.1 µM
GI50 [17]: 828 nM
TGI [17]: > 100 µM
GI50 [18]: 10.6 nM
TGI [18]: > 100 µM
GI50 [19]: > 59.8 µM
TGI [19]: > 100 µM
GI50 [20]: < 11.2 nM
TGI [20]: > 35.4 µM
GI50 [21]: < 10 nM
TGI [21]: > 100 µM
GI50 [22]: 442 nM
TGI [22]: > 100 µM
GI50 [23]: < 24.1 nM
TGI [23]: > 100 µM
GI50 [24]: < 10 nM
GI50 [25]: < 10 nM
TGI [25]: > 100 µM
GI50 [26]: < 17 nM
TGI [26]: > 100 µM
GI50 [27]: < 24.1 nM
TGI [27]: > 100 µM
GI50 [28]: < 10 nM
TGI [28]: > 100 µM
TGI [29]: > 100 µM
GI50 [30]: < 14.1 nM
GI50 [31]: < 12.8 nM
TGI [31]: > 100 µM
GI50 [32]: < 10 nM
TGI [32]: > 100 µM
GI50 [33]: < 16.1 nM
TGI [33]: > 100 µM
GI50 [34]: 18.6 nM
TGI [34]: > 100 µM
GI50 [35]: < 10 nM
TGI [35]: > 100 µM
GI50 [36]: 31.9 nM
TGI [36]: > 100 µM
GI50 [37]: < 12.7 nM
GI50 [38]: < 11.3 nM
TGI [38]: > 100 µM
GI50 [39]: < 11.1 nM
TGI [39]: > 100 µM
GI50 [40]: < 10 nM
TGI [40]: > 87.2 µM
GI50 [41]: < 11.8 nM
TGI [41]: > 100 µM
GI50 [42]: < 12 nM
TGI [42]: > 100 µM
GI50 [43]: < 14.9 nM
TGI [43]: > 100 µM
GI50 [44]: < 19.2 nM
TGI [44]: > 100 µM
GI50 [45]: < 12.5 nM
TGI [45]: 718 nM
GI50 [46]: < 10 nM
TGI [46]: > 62.6 µM
GI50 [47]: < 10 nM
TGI [47]: > 100 µM
GI50 [48]: < 10 nM
TGI [48]: 36.5 nM
GI50 [49]: < 10 nM
TGI [49]: < 10.5 nM
GI50 [50]: < 10 nM
TGI [50]: > 100 µM
GI50 [51]: < 10 nM
GI50 [52]: < 10 nM
GI50 [53]: < 11.4 nM
TGI [53]: > 100 µM
GI50 [54]: < 15.5 nM
TGI [54]: > 100 µM
GI50 [55]: < 18.8 nM
GI50 [56]: < 10 nM
TGI [56]: > 100 µM
GI50 [57]: < 15.8 nM
TGI [57]: > 100 µM
GI50 [58]: > 38.4 µM
TGI [58]: > 100 µM
